Measured values as given in patent US11096967B2, “Pharmaceutical composition for preventing or treating regulatory T cell-mediated diseases” (SCM LIFESCIENCE CO., LTD., priority 2016, dated 2021).

Columns and labels:
Assay type in all cases: cell-based, human
[1] = tested on: PI3K-Akt signaling pathway; assay: Akt phosphorylation in CD4^+ T cells (Western blotting); details: pre-treatment 30 min; LY294002 5 μM, GSK690693 1 μM
Experimental: Five independent experiments were carried out. […] After 2 days, hcMSCs were washed three times with cold phosphate-buffered saline (PBS) containing 0.05 mM ethylenediamine tetraacetic acid (EDTA) to detach lymphocytes from hcMSCs. Then, hcMSCs were trypsinized and washed twice with cold PBS-EDTA solution and stained with phycoerythrin (PE)-conjugated ICOSL antibody (BioLegend) to analyze ICOSL expression.
More particularly, CD4^+ T cells were pre-treated with LY294002 (5 μM) and GSK690693 (1 μM) for 30 min. […] Total Akt was determined.

CD4^+ T cells = assay: Effect of PI3K-Akt inhibitors on rhICOSL- or hcMSC-induced Treg induction; details: 2 days; LY294002 5 μM, GSK690693 1 μM
Experimental: Akt inhibitor […] (Calbiochem, San Diego, Calif., USA) was used at a concentration of 1 μM and LY294002 (Cell Signaling Technology, Danvers, Mass., USA) was used at concentration of 5 to 10 μM. […] Total Akt was determined. […] The results are illustrated in FIG. 14.

ICOSL = ICOSL induction in hcMSC by priming factors (qRT-PCR, RT-PCR); details: for levels of ICOSL mRNA in hcMSCs: IL-1β 10 ng/mL, TNF-α 10 ng/mL, LPS 2 μg/mL, qRT-PCR
Excerpt: It has been known that the immunosuppressive activity of MSCs can be influenced by various priming or appropriate stimulations. It was confirmed that ICOSL expression in hcMSCs correlated with Treg induction. Thus, it was expected that ICOSL expression was enhanced to increase Treg and to strengthen the immunosuppressive function of hcMSCs. To confirm this expectation, an experiment was first carried out to confirm pro-inflammatory cytokine that can induce ICOSL expression. First, to find appropriate priming factors, hcMSCs were treated with IL-1β (10 ng/mL), TNF-α (10 ng/mL) and LPS (2 μg/mL) for 24 hours. Then, ICOSL expression was determined after 1 hour and 3 hours though qRT-PCR. Further, in order to confirm whether the expression of IL-1R in hcMSC was changed by […] treatment, the expression of IL-1R in hcMSC was confirmed after treatment with IL-1β for 24 hours. The results are illustrated in FIG. 16.

Compound	rhICOSL-induced Akt phosphorylation [1]	rhICOSL or hcMSC-induced Tregs (CD4^+ T cells)	levels of ICOSL mRNA in hcMSCs (ICOSL)	levels of ICOSL mRNA in hcMSCs (ICOSL; listed as IL-10)	expression of IL-1R mRNA in hcMSC (ICOSL; IL-1β 10 ng/ml, 24 hours)
CCn1c(-c2nonc2N)nc2c(C#CC(C)(C)O)ncc(OC[C@H]3CCCNC3)c21 [GSK690693]	marked decrease in Akt phosphorylation	decreased	–	–	–
IL-1β: pro-inflammatory cytokine used as priming factor for hcMSCs	–	–	highest effect	increased	did not change the expression of IL-1R mRNA
TNF-α	–	–	increased	–	–
